What was measured:
[1] = tested on: K. pneumoniae 13GNB–429, K. pneumoniae 13GNB–550 and K. oxytoca 13GNB–582; experiment: MIC in presence of PAβN, three resistant Klebsiella isolates; assay type: cell-based; details: three resistant Klebsiella spp. isolates
Protocol: (§1) MICs of NCL259 or NCL265 in the presence of the efflux pump inhibitor, PAβN were determined using a checkerboard assay. […] Briefly, a two-fold serial dilution of each antimicrobial solution was prepared in its appropriate solvent (e.g., DMSO for robenidine analogues and Milli-Q water for PAβN), and 1 μL of each dilution was added from wells 12 to 3 (12.8–0.25 μg/mL for robenidine analogues, and 32–2 μg/mL for PAβN). Thereafter, 89 μL of LB broth was added to each well followed by the addition of 10 μL of bacterial suspension (1–5 × 10^6 CFU/mL) to each well. In this manner, the final concentration of DMSO in each well was 1%. The plate was subsequently incubated at 37 °C for 24 h. The resazurin assay was used for assessment of drug susceptibility of NCL259 and NCL265 (Supplementary Table S1–S6). The same method was also used to test the MICs of NCL259 or NCL265 in the presence of PMB against a range of Gram-negative reference strains (E. coli ATCC 25922, E. coli ATCC 10763, P. aeruginosa PAO1, P. aeruginosa ATCC 27853, A. baumannii ATCC 12457, A. baumannii ATCC 19606, K. pneumoniae ATCC 4352 and K. pneumoniae ATCC 33495). Stock solutions were prepared prior to use (25.6–0.25 mg/mL for robenidine analogues; 12.8–0.25 mg/mL for PMB). The interaction of two antibiotics was calculated as the fractional inhibitory concentration index (FICI) using the following formula:(1) FICI=MICA in combination/MICA alone+MICB in combination/MICB alone where A is NCL259 or NCL265 and B is PAβN or PMB. According to FICI calculations, the interaction between two compounds were interpreted as follows: synergistic (FICI ≤ 0.5); additive or partially synergistic (0.5 < FICI ≤ 1); indifferent (1 < FICI ≤ 4); and antagonistic (FICI > 4), as described previously. The dose reduction index (DRI) was used to describe the difference between the effective doses of NCL259 or NCL265 in combination with PMB or PAβN in comparison to their individual doses, using the following formula:(2) DRI=MICA alone/MICA in combination

[2] = tested on: K. pneumoniae ATCC 33495; experiment: MIC, broth micro-dilution; assay type: cell-based, Klebsiella pneumoniae; details: Klebsiella pneumoniae, ATCC33495, read-out: MIC, Single Drug
Protocol: (§2) A variety of Gram-negative reference strains (E. coli ATCC 25922, E. coli ATCC 10763, P. aeruginosa PAO1, P. aeruginosa ATCC 27853, A. baumannii ATCC 12457, A. baumannii ATCC 19606, K. pneumoniae ATCC 4352 and K. pneumoniae ATCC 33495) were used for initial screening and combination testing with PMB. The organisms were speciated using biochemical testing and MALDI-TOF mass spectrometry (Bruker, Preston, VIC, Australia). Activity testing of NCL259 and NCL265 was also carried out on 51 extraintestinal clinical E. coli isolates from companion animals, and 83 porcine and bovine enterotoxigenic E. coli (ETEC) isolates from the Australian Centre for Antimicrobial Resistance Ecology collection. E. coli wild-type (BW 25113) and its mutant BW 25113∆AcrB, in which the inner membrane component AcrB of the tripartite multidrug efflux system AcrA/AcrB/TolC has been deleted, were obtained from the bacterial collection held at Health and Biomedical Innovation, Clinical and Health Sciences, The University of South Australia. All isolates were cultured on sheep blood agar (SBA) plates at 37 °C for 18 h before being subcultured into Luria Bertaini (LB) (Oxoid, Scoresby, VIC, Australia) broth and grown to A600nm = 0.5 (equivalent to approx. 1.5 × 10^8 colony-forming units (CFU)/mL).
(§3) MICs for NCL259 and NCL265 (serial two-fold dilutions commencing at 256 µg/mL) were determined (in duplicate) in round bottom 96–well microtitre trays (Sarstedt 82.1582.001), using the broth micro-dilution method recommended by the Clinical and Laboratory Standards Institute (CLSI). We have shown previously that robenidine can chelate calcium ions from cation-adjusted Mueller-Hinton broth, which causes the loss of activity of robenidine. Therefore, LB broth was used in this study. Additionally, considering the low solubility of robenidine and its analogues in aqueous solutions, two-fold serial dilutions of stock solutions of these compounds were prepared in 100% DMSO [21]. The MIC for ampicillin against each isolate was determined for each test to serve as an internal quality control. The MICs of isolates were determined by visual reading and using an EnSpire Multimode Plate Reader 2300 at A600nm.

[3] = tested on: K. pneumoniae ATCC 4352; experiment: MIC, broth micro-dilution; assay type: cell-based, Klebsiella pneumoniae; details: Klebsiella pneumoniae, ATCC4352, read-out: MIC, Single Drug
Protocol: as §2, §3

[4] = tested on: Companion animal ExPEC (n = 51); experiment: MIC, broth micro-dilution, clinical isolates; assay type: cell-based, Escherichia coli; details: for MIC range: Companion animal ExPEC (n = 51); for MIC50 / MIC90: Escherichia coli
Protocol: as §2, §3

[5] = tested on: Porcine/bovine ETEC (n = 83); experiment: MIC, broth micro-dilution, clinical isolates; assay type: cell-based, Escherichia coli; details: for MIC50 / MIC90: Escherichia coli; for MIC range: Porcine/bovine ETEC (n = 83)
Protocol: as §2, §3

[6] = tested on: E. coli ATCC 25922; experiment: Checkerboard assay with PMB; assay type: cell-based, Escherichia coli; details: for MIC, Combination: NCL259 or NCL265 with PMB; for Combination Effect / FICI: with PMB
Protocol: as §1
(§4) Evaluation of DRI is important clinically because it can allow the dose of a potentially toxic drug to be lowered in combination with another compound without reducing the drug’s efficacy. A DRI higher than 1 is viewed as beneficial.

[7] = tested on: E. coli ATCC 10763; experiment: Checkerboard assay with PMB; assay type: cell-based, Escherichia coli; details: for MIC, Combination: NCL259 or NCL265 with PMB; for Combination Effect / FICI: with PMB
Protocol: as §1, §4

[8] = tested on: 51 clinical ExPEC isolates from companion animals and 83 porcine and bovine ETEC isolates; experiment: MIC, broth micro-dilution, all animal clinical isolates; assay type: cell-based, Escherichia coli; details: ExPEC and ETEC isolates together
Protocol: A variety of Gram-negative reference strains (E. coli ATCC 25922, E. coli ATCC 10763, P. aeruginosa PAO1, P. aeruginosa ATCC 27853, A. baumannii ATCC 12457, A. baumannii ATCC 19606, K. pneumoniae ATCC 4352 and K. pneumoniae ATCC 33495) were used for initial screening and combination testing with PMB. The organisms were speciated using biochemical testing and MALDI-TOF mass spectrometry (Bruker, Preston, VIC, Australia). Activity testing of NCL259 and NCL265 was also carried out on 51 extraintestinal clinical E. coli isolates from companion animals, and 83 porcine and bovine enterotoxigenic E. coli (ETEC) isolates from the Australian Centre for Antimicrobial Resistance Ecology collection. […]
MICs for NCL259 and NCL265 (serial two-fold dilutions commencing at 256 µg/mL) were determined (in duplicate) in round bottom 96–well microtitre trays (Sarstedt 82.1582.001), using the broth micro-dilution method recommended by the Clinical and Laboratory Standards Institute (CLSI). […] The MIC for ampicillin against each isolate was determined for each test to serve as an internal quality control. The MICs of isolates were determined by visual reading and using an EnSpire Multimode Plate Reader 2300 at A600nm.

[9] = tested on: Wild-type (E. coli BW 25113); experiment: MIC, efflux-pump wild-type; assay type: cell-based; details: Escherichia coli, read-out: MIC Values
Protocol: as §2
as §3, with “Additionally, considering the low solubility of robenidine and its analogues in aqueous solutions, two-fold serial dilutions of stock solutions of these compounds were prepared in 100% DMSO [21].” left out

[10] = tested on: K. oxytoca 13GNB–582; experiment: Checkerboard assay with PAβN; assay type: cell-based; details: for concentration at the marked interaction: resazurin
Protocol: as §1, §4

[11] = K. oxytoca 13GNB–582, PAβN + NCL265
[12] = Table S6, NCL265 + PAβN, replicate 1
[13] = Table S6, NCL265 + PAβN, replicate 2
[14] = K. oxytoca 13GNB–582, PAβN + NCL259
[15] = Table S3, NCL259 + PAβN, replicate 1
[16] = Table S3, NCL259 + PAβN, replicate 2

Row | Structure (SMILES) | MIC in the presence of PAβN [1] [µg/mL] | reduction of MIC in the presence of PAβN [1] | MIC [2] [µg/mL] | MIC [3] [µg/mL] | MIC range [4] [µg/mL] | MIC50 [4] [µg/mL] | MIC90 [4] [µg/mL] | MIC50 [5] [µg/mL] | MIC90 [5] [µg/mL] | MIC range [5] [µg/mL] | MIC, Combination [6] [µg/mL] | Combination Effect [6] | FICI [6] | MIC, Combination [7] [µg/mL] | Combination Effect [7] | FICI [7] | MIC range [8] [µg/mL] | MIC [9] [µg/mL] | other results
1 | [H]/N=C(\N)NN=C(CCCCCC)c1ccc(Cl)cc1 [NCL265, (E)-2-(1-(4-chlorophenyl)heptylidene)hydrazine-1-carboximidamide] | 2 to 4 | 64- to 128 fold | 64 | 2 | 4 to 16 | 32 | 32 | 8 | 8 | 2 to 16 | 1 | Additivity (additive or partially synergistic, 0.5 < FICI ≤ 1) | 0.75 | 0.25 | Synergism (synergistic, FICI ≤ 0.5) | 0.254 | 2 to 16 | 16 | Dose Reduction Index (DRI) PMB:NCL265 ([6]; PMB + NCL265): 4; Dose Reduction Index (DRI) PMB:NCL265 ([7]; PMB + NCL265): 256; DRI PAβN:NCL265 ([10]; K. oxytoca 13GNB–582): 128; Combination Effect [10, 11]: Additivity (additive or partially synergistic, 0.5 < FICI ≤ 1); FICI [10, 11]: 0.508; MIC, Combination [10, 11]: 2 µg/mL; interaction [10, 12]: synergistic (synergistic (FICI ≤ 0.5)); interaction [10, 13]: synergistic (synergistic (FICI ≤ 0.5)); concentration at the marked interaction [10, 12]: 4 µg/mL; concentration at the marked interaction [10, 13]: 8 µg/mL
2 | [H]/N=C(\N)NN=C(CC1CCCCC1)c1ccc(Cl)cc1 [NCL259, (E)-2-(1-(4-chlorophenyl)-2-cyclohexylethylidene)hydrazine-1-carboximidamide] | 8 to 16 | 16- to 32 fold | 64 | 8 | 16 to 64 | 32 | 32 | 8 | 8 | 4 to 64 | 1 | Additivity (additive or partially synergistic, 0.5 < FICI ≤ 1) | 0.563 | 0.25 | Additivity (additive or partially synergistic, 0.5 < FICI ≤ 1) | 0.504 | 4 to 64 | 64 | Dose Reduction Index (DRI) PMB:NCL259 ([6]; PMB + NCL259): 16; Dose Reduction Index (DRI) PMB:NCL259 ([7]; PMB + NCL259): 256; DRI PAβN:NCL259 ([10]; K. oxytoca 13GNB–582): 32; Combination Effect [10, 14]: Synergism (synergistic, FICI ≤ 0.5); FICI [10, 14]: 0.281; MIC, Combination [10, 14]: 8 µg/mL; interaction [10, 15]: synergistic (synergistic (FICI ≤ 0.5)); interaction [10, 16]: synergistic (synergistic (FICI ≤ 0.5)); concentration at the marked interaction [10, 15]: 8 µg/mL; concentration at the marked interaction [10, 16]: 8 µg/mL
